What was measured:
Type in all cases: cell-based
Moraxella catarrhalis = assay: MIC against Gram-negative bacteria: Moraxella catarrhalis
Method in brief: (§1)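 Growth inhibition by human EGF domain proteins was scored in LB liquid culture seeded at 5×10^5 CFU/mL. Protein was applied as a two-fold dilution series in triplicate, with shaking incubation at 37° C; MIC is the lowest concentration giving no growth.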

Proteus vulgaris = assay: MIC against Gram-negative bacteria: Proteus vulgaris
Method in brief: as §1

Citrobacter diversus = assay: MIC against Gram-negative bacteria: Citrobacter diversus
Method in brief: as §1

Enterobacter cloacae = assay: MIC against Gram-negative bacteria: Enterobacter cloacae
Method in brief: as §1

Aeromonas hydrophila = assay: MIC against Gram-negative bacteria: Aeromonas hydrophila
Method in brief: as §1

Klebsiella pneumonia = assay: MIC against Gram-negative bacteria: Klebsiella pneumonia
Method in brief: as §1

E. coli BL21 = assay: MIC against Gram-negative bacteria: E. coli BL21
Method in brief: as §1

Serratia marcescens = assay: MIC against Gram-negative bacteria: Serratia marcescens
Method in brief: as §1

Pseudomonas aeruginosa = assay: MIC against Gram-negative bacteria: Pseudomonas aeruginosa
Method in brief: as §1

E. coli DH5α = assay: Antibacterial activity: MIC and growth curve against E. coli DH5α in 96-well plate; conditions: minimal inhibitory concentration against E. coli DH5α; 96-well plate, 5×10^5 CFU/mL, 37° C., judged after 8 h
Method in brief: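 Log-phase DH5α (OD600 about 0.5, 37° C, 185 rpm in LB) was pelleted, resuspended in fresh LB and seeded at 5×10^5 CFU/mL with recombinant protein at 50, 25 and 12.5 μg/mL (two-fold series), in triplicate. Plates were shaken at 175 rpm, 37° C, and OD600 was read every 30 min. MIC was the lowest concentration with no growth.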

Proteus mirabilis = assay: MIC against Gram-negative bacteria: Proteus mirabilis
Method in brief: as §1

[1] = 10 h cultivation at 37° C., 5×10^5 CFU/mL, two-fold serial dilution
[2] = M. catarrhalis, 10 h cultivation at 37° C., 5×10^5 CFU/mL
[3] = P. vulgaris, 10 h cultivation at 37° C., 5×10^5 CFU/mL
[4] = C. diversus, 10 h cultivation at 37° C., 5×10^5 CFU/mL
[5] = E. cloacae, 10 h cultivation at 37° C., 5×10^5 CFU/mL
[6] = A. hydrophila, 10 h cultivation at 37° C., 5×10^5 CFU/mL
[7] = K. pneumonia, 10 h cultivation at 37° C., 5×10^5 CFU/mL
[8] = E. coli BL21, 10 h cultivation at 37° C., 5×10^5 CFU/mL
[9] = S. marcescens, 10 h cultivation at 37° C., 5×10^5 CFU/mL
[10] = P. aeruginosa, 10 h cultivation at 37° C., 5×10^5 CFU/mL
[11] = P. mirabilis, 10 h cultivation at 37° C., 5×10^5 CFU/mL
[12] = 96-well plate, 5×10^5 CFU/mL, 37° C., 10 h

“PRT1249 (NQCACNSSPCEQQSGRCQCRERTFGARCD; listed as Homo sapiens)” was tested, and the “MIC against M. catarrhalis” value (Moraxella catarrhalis; Moraxella catarrhalis, 96-well plate, 5×10^5 CFU/mL, 37° C., 10 h) was 12.5 mg/L, the “MIC against P. vulgaris” value (Proteus vulgaris; Proteus vulgaris, 96-well plate, 5×10^5 CFU/mL, 37° C., 10 h) was 50 mg/L and the “MIC against C. diversus” value (Citrobacter diversus; Citrobacter diversus, 96-well plate, 5×10^5 CFU/mL, 37° C., 10 h) was 50 mg/L. The “MIC against E. cloacae” value (Enterobacter cloacae; Enterobacter cloacae, 96-well plate, 5×10^5 CFU/mL, 37° C., 10 h) was 50 mg/L, the “MIC against A. hydrophila” value (Aeromonas hydrophila; Aeromonas hydrophila, 96-well plate, 5×10^5 CFU/mL, 37° C., 10 h) was 12.5 mg/L and the “MIC against K. pneumonia” value (Klebsiella pneumonia; Klebsiella pneumonia, 96-well plate, 5×10^5 CFU/mL, 37° C., 10 h) was 12.5 mg/L. For the same substance, the “MIC against E. coli BL21” value (E. coli BL21; E. coli BL21, 96-well plate, 5×10^5 CFU/mL, 37° C., 10 h) was 12.5 mg/L, the “MIC against S. marcescens” value (Serratia marcescens; Serratia marcescens, 96-well plate, 5×10^5 CFU/mL, 37° C., 10 h) was 25 mg/L and the “MIC against P. aeruginosa” value (Pseudomonas aeruginosa; Pseudomonas aeruginosa, 96-well plate, 5×10^5 CFU/mL, 37° C., 10 h) was 50 mg/L. For the same substance, the MIC (E. coli DH5α) was 12.5 mg/L and the “MIC against P. mirabilis” value (Proteus mirabilis; Proteus mirabilis, 96-well plate, 5×10^5 CFU/mL, 37° C., 10 h) was 25 mg/L.

Work on “PRT908 (LDNACLTNPCRNGGTCDLLTLTEYKCRCPPGWSGKSCQ; listed as Homo sapiens)” yielded an MIC (Moraxella catarrhalis; M. catarrhalis, 10 h cultivation at 37° C.) of 12.5 mg/L, an MIC (Proteus vulgaris; P. vulgaris, 10 h cultivation at 37° C.) of 25 mg/L and an MIC (Citrobacter diversus; C. diversus, 10 h cultivation at 37° C.) of 50 mg/L. The MIC (Enterobacter cloacae; E. cloacae, 10 h cultivation at 37° C.) was 100 mg/L, the MIC (Aeromonas hydrophila; A. hydrophila, 10 h cultivation at 37° C.) was 25 mg/L and the MIC (Klebsiella pneumonia; K. pneumonia, 10 h cultivation at 37° C.) was 50 mg/L. For the same substance, the MIC (E. coli BL21; E. coli BL21, 10 h cultivation at 37° C.) was 12.5 mg/L, the MIC (Serratia marcescens; S. marcescens, 10 h cultivation at 37° C.) was 25 mg/L and the MIC (Pseudomonas aeruginosa; P. aeruginosa, 10 h cultivation at 37° C.) was 25 mg/L. The MIC (E. coli DH5α) was 50 mg/L and the MIC (Proteus mirabilis; P. mirabilis, 10 h cultivation at 37° C.) was 25 mg/L.

With “PRT1143 (NLDECLSEPCLHDGVCIDGINHYTCDCKSGFFGTHCE; listed as Homo sapiens)” the “MIC M. catarrhalis” value (Moraxella catarrhalis; [1]) was 50 mg/L, the “MIC P. vulgaris” value (Proteus vulgaris; [1]) was 50 mg/L and the “MIC C. diversus” value (Citrobacter diversus; [1]) was 12.5 mg/L. For the same substance, the “MIC E. cloacae” value (Enterobacter cloacae; [1]) was 12.5 mg/L, the “MIC A. hydrophila” value (Aeromonas hydrophila; [1]) was 50 mg/L and the “MIC K. pneumonia” value (Klebsiella pneumonia; [1]) was 25 mg/L. For the same substance, the “MIC E. coli BL21” value (E. coli BL21; [1]) was 25 mg/L, the “MIC S. marcescens” value (Serratia marcescens; [1]) was 12.5 mg/L and the “MIC P. aeruginosa” value (Pseudomonas aeruginosa; [1]) was 50 mg/L. The MIC (E. coli DH5α) was 12.5 mg/L and the “MIC P. mirabilis” value (Proteus mirabilis; [1]) was 12.5 mg/L.

“PRT822 (VRAGCRHSGGCLNGGLCDPHTGRCLCPAGWTGDKCQ; listed as Homo sapiens)” was tested, and the “MIC (μg/mL) M. catarrhalis” value (Moraxella catarrhalis; [2]) was 12.5 µg/mL, the “MIC (μg/mL) P. vulgaris” value (Proteus vulgaris; [3]) was 12.5 µg/mL and the “MIC (μg/mL) C. diversus” value (Citrobacter diversus; [4]) was 12.5 µg/mL. The “MIC (μg/mL) E. cloacae” value (Enterobacter cloacae; [5]) was 50 µg/mL, the “MIC (μg/mL) A. hydrophila” value (Aeromonas hydrophila; [6]) was 12.5 µg/mL and the “MIC (μg/mL) K. pneumonia” value (Klebsiella pneumonia; [7]) was 12.5 µg/mL. For the same substance, the “MIC (μg/mL) E. coli BL21” value (E. coli BL21; [8]) was 25 µg/mL, the “MIC (μg/mL) S. marcescens” value (Serratia marcescens; [9]) was 12.5 µg/mL and the “MIC (μg/mL) P. aeruginosa” value (Pseudomonas aeruginosa; [10]) was 50 µg/mL. The MIC (E. coli DH5α) was 12.5 mg/L and the “MIC (μg/mL) P. mirabilis” value (Proteus mirabilis; [11]) was 25 µg/mL.

With “PRT704 (LLSNCQQLNCQYKCTMVRNSTRCYCEDGFEITEDGRSCK; listed as Homo sapiens)” the “MIC M. catarrhalis” value (Moraxella catarrhalis; [12]) was 12.5 mg/L, the “MIC P. vulgaris” value (Proteus vulgaris; [12]) was 25 mg/L and the “MIC C. diversus” value (Citrobacter diversus; [12]) was 25 mg/L. For the same substance, the “MIC E. cloacae” value (Enterobacter cloacae; [12]) was 50 mg/L, the “MIC A. hydrophila” value (Aeromonas hydrophila; [12]) was 50 mg/L and the “MIC K. pneumonia” value (Klebsiella pneumonia; [12]) was 25 mg/L. The “MIC E. coli BL21” value (E. coli BL21; [12]) was 25 mg/L, the “MIC S. marcescens” value (Serratia marcescens; [12]) was 12.5 mg/L and the “MIC P. aeruginosa” value (Pseudomonas aeruginosa; [12]) was 50 mg/L. For the same substance, the MIC (E. coli DH5α) was 50 mg/L and the “MIC P. mirabilis” value (Proteus mirabilis; [12]) was 50 mg/L.

With “PRT785 (IHTCNCHNGAFCSAYDGECKCTPGWTGLYCT; listed as Homo sapiens)” the “MIC (μg/mL) M. catarrhalis” value (Moraxella catarrhalis; [2]) was 25 µg/mL, the “MIC (μg/mL) P. vulgaris” value (Proteus vulgaris; [3]) was 25 µg/mL and the “MIC (μg/mL) C. diversus” value (Citrobacter diversus; [4]) was 12.5 µg/mL. For the same substance, the “MIC (μg/mL) E. cloacae” value (Enterobacter cloacae; [5]) was 12.5 µg/mL, the “MIC (μg/mL) A. hydrophila” value (Aeromonas hydrophila; [6]) was 50 µg/mL and the “MIC (μg/mL) K. pneumonia” value (Klebsiella pneumonia; [7]) was 25 µg/mL. For the same substance, the “MIC (μg/mL) E. coli BL21” value (E. coli BL21; [8]) was 50 µg/mL, the “MIC (μg/mL) S. marcescens” value (Serratia marcescens; [9]) was 50 µg/mL and the “MIC (μg/mL) P. aeruginosa” value (Pseudomonas aeruginosa; [10]) was 25 µg/mL. For the same substance, the MIC (E. coli DH5α) was 25 mg/L and the “MIC (μg/mL) P. mirabilis” value (Proteus mirabilis; [11]) was 50 µg/mL.
